Drawing on PMC10132767, “Bacterial catabolism of membrane phospholipids links marine biogeochemical cycles” (Science Advances, 2023), this text covers Kd for one compound.

The target in this assay is T1, EtoX (TRAP transporter, periplasmic ethanolamine binding protein, MED193_10041).
T1 construct: full-length codon optimized, C-terminal His-tag
Put plainly: microscale thermophoresis with purified recombinant EtoX. More on the design: species or system Phaeobacter sp. MED193.

Structures are written as SMILES.

Usually Kd stands for the constant that tells how readily two partners part at equilibrium. As to `NCCO` [ethanolamine], the Kd is 7.88 ± 1.88 µM.
